Data: US6342503B1, “1N-alkyl-n-arylpyrimidinamines and derivatives thereof” (DuPont Pharmaceuticals Company, priority 1993, dated 2002)

Experiments:
CRF receptor = target: T1, CRF receptor (Rattus norvegicus, UniProt P35353); experiment: In vitro CRF receptor binding assay (competition with [125I] ovine CRF, rat cortex membranes); conditions: read-out: Inhibition Ki
T1 construct: 100 μl of membrane suspension as prepared above to give a total reaction volume of 300 μl; from tissue; host or cells: rat cerebral cortex membrane homogenate
T1 sequence (P35353 24-415): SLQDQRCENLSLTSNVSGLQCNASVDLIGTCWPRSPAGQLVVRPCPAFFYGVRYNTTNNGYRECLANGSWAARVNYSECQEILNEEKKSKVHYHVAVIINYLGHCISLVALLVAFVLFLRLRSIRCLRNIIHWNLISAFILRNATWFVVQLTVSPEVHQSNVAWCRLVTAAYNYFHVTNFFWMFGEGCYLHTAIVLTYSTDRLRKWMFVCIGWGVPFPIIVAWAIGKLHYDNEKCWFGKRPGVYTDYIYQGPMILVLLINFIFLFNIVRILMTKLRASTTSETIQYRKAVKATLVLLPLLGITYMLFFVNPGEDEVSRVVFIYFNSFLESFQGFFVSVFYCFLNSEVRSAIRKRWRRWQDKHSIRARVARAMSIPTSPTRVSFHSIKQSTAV

SMILES: CCN(c1nc(C)cc(C(=O)c2cc[nH]n2)n1)c1ccc(C(C)C)cc1Br [compound 286]
- Ki (CRF receptor): < 500 nM
- melting point: 171 to 173 °C

SMILES: CCN(c1nc(C)cc(C(=O)c2ccc(OC)cc2)n1)c1ccc(C(C)C)cc1Br [compound 287]
- Ki (CRF receptor): 501 to 2000 nM
- melting point: 104 to 106 °C

SMILES: CCN(c1nc(C)cc(C(=O)c2ccco2)n1)c1ccc(C(C)C)cc1Br [compound 288]
- Ki (CRF receptor): < 500 nM
- melting point: 136 to 138 °C

SMILES: CCN(c1nc(C)cc(C(O)(c2ccc(OC)cc2)c2ccc(OC)cc2)n1)c1ccc(C(C)C)cc1Br [compound 289]
- Ki (CRF receptor): < 500 nM
- melting point: 63 to 65 °C

SMILES: CCN(c1nc(C)cc(C(O)(c2ccccc2)c2ccccc2)n1)c1ccc(C(C)C)cc1Br [compound 293]
- Ki (CRF receptor): < 500 nM
- melting point: 56 to 58 °C
